A value given as a limit tells only on which side of the number the result lay.

In this test the target is T1, human S1P1 receptors (Homo sapiens, UniProt P21453).
T1 construct: host or cells: HEK293
T1 sequence (P21453 whole entry): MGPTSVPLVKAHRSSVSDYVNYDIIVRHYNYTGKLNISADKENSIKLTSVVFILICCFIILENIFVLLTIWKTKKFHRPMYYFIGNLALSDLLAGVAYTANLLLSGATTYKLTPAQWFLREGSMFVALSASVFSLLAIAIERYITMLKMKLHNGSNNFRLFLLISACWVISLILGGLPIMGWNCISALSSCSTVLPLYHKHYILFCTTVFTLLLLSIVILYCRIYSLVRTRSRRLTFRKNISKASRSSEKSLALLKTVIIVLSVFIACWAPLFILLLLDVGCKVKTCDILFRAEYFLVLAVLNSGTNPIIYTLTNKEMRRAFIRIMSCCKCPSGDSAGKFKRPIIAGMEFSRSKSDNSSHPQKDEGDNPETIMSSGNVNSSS
Kind of test: S1P1R antagonist assay (fluorescent membrane potential dye, cAMP readout). Type of test: cell-based. The following applies: HEK293 cells expressing human S1P1 receptors and CNG channel; 500 nM NECA; S1P1R agonist 10 nM; 90 minutes; read-out: EC50 or IC50 value.
Regarding `O=C(Cc1c[nH]cn1)N[C@@H](COCc1ccccc1)c1nc2cc(Oc3ccc(F)cc3)ccc2[nH]1` [Compound 59, (R)—N-(2-(benzyloxy)-1-(5-(4-fluorophenoxy)-1H-benzo[d]imidazol-2-yl)ethyl)-2-(1H-imidazol-4-yl)acetamide], the IC50 was 300 to 1000 nM.

On to `O=C(Nc1ccc(Oc2ccccc2)cc1)C(COCc1ccccc1)NC(=O)[C@H]1CCCO1` (stereo partly drawn) [Compound 23, (2R)—N-(3-(benzyloxy)-1-oxo-1-(4-phenoxyphenylamino)propan-2-yl)tetrahydrofuran-2-carboxamide], for which the IC50 was above 1000 nM.

Regarding `O=C(CCCCc1ccccc1)N[C@@H](COCc1ccccc1)C(=O)Nc1ccc(Oc2ccc(F)cc2)cc1` [Compound 104, (S)—N-(3-(benzyloxy)-1-(4-(4-fluorophenoxy)phenylamino)-1-oxopropan-2-yl)-5-phenylpentanamide], the IC50 was above 1000 nM.

Turning to `O=C1CC[C@@H](C(=O)N2C[C@H](Cc3ccccc3)C[C@H]2C(=O)Nc2ccc(Oc3ccc(F)cc3)cc2)O1` [Compound 39, (2S,4R)-4-benzyl-N-(4-(4-fluorophenoxy)phenyl)-1-((S)-5-oxotetrahydrofuran-2-carbonyl)pyrrolidine-2-carboxamide], the IC50 is at most 300 nM. Consider `O=C(CN1CCN(c2ccccc2)CC1)N[C@@H](COCc1ccccc1)C(=O)Nc1ccc(Oc2ccc(F)cc2)cc1` [Compound 225, (S)-3-(benzyloxy)-N-(4-(4-fluorophenoxy)phenyl)-2-(2-(4-phenylpiperazin-1-yl)acetamido)propanamide], for which the IC50 was in the range of 300 to 1000 nM. With `O=C(NC(COCc1ccccc1)C(=O)Nc1ccc(Oc2ccccc2)cc1)c1ccccc1Cl` (stereo not shown) [Compound 274, 2-chloro-N-(2-oxo-1-{[(phenylmethyl)oxy]methyl}-2-{[4-(phenyloxy)phenyl]amino}ethyl)benzamide], the IC50 was above 1000 nM. `CC(=O)c1ccc(N2CCN(CC(=O)N[C@@H](COCc3ccccc3)C(=O)Nc3ccc(Oc4ccc(F)cc4)cc3)CC2)cc1` [Compound 229, (S)-2-(2-(4-(4-acetylphenyl)piperazin-1-yl)acetamido)-3-(benzyloxy)-N-(4-(4-fluorophenoxy)phenyl)propanamide]: the IC50 was 300 to 1000 nM.

With `Cc1cc(CC(=O)N2C[C@H](Cc3ccccc3)C[C@H]2C(=O)Nc2ccc(Oc3ccc(F)cc3)cc2)n[nH]1` [Compound 177, (2S,4R)-4-benzyl-N-(4-(4-fluorophenoxy)phenyl)-1-(2-(5-methyl-1H-pyrazol-3-yl)acetyl)pyrrolidine-2-carboxamide], the IC50 was at most 300 nM. As for `COC(=O)C1CCN(CC(=O)N[C@@H](COCc2ccccc2)C(=O)Nc2ccc(Oc3ccc(F)cc3)cc2)CC1` [Compound 238, (S)-methyl 1-(2-(3-(benzyloxy)-1-(4-(4-fluorophenoxy)phenylamino)-1-oxopropan-2-ylamino)-2-oxoethyl)piperidine-4-carboxylate], the IC50 lay within 300 to 1000 nM. In the case of `N#CCC(=O)N1C[C@H](Cc2ccccc2)C[C@H]1C(=O)Nc1ccc(Oc2ccc(F)cc2)cc1` [Compound 129, (2S,4R)-4-benzyl-1-(2-cyanoacetyl)-N-(4-(4-fluorophenoxy)phenyl)pyrrolidine-2-carboxamide] it was at most 300 nM; in that of `O=C(Nc1ccc(Oc2ccc(F)cc2)cc1)[C@@H]1C[C@@H](NCc2ccccc2)CN1C(=O)Cn1cncn1` [Compound 179, (2S,4R)-1-(2-(1H-1,2,4-triazol-1-yl)acetyl)-4-(benzylamino)-N-(4-(4-fluorophenoxy)phenyl)pyrrolidine-2-carboxamide], at most 300 nM; in that of `CC(C(=O)N[C@@H](COCc1ccccc1)C(=O)Nc1ccc(Oc2ccc(F)cc2)cc1)c1c[nH]cn1` (stereo partly drawn) [Compound 167, (2S)-2-(2-(1H-imidazol-4-yl)propanamido)-3-(benzyloxy)-N-(4-(4-fluorophenoxy)phenyl)propanamide], at most 300 nM. The value for `COc1cccc(C[C@@H]2C[C@@H](C(=O)Nc3ccc(Oc4ccc(F)cc4)cc3)N(C(=O)Cn3cncn3)C2)c1` [Compound 70, (2S,4R)-1-(2-(1H-1,2,4-triazol-1-yl)acetyl)-N-(4-(4-fluorophenoxy)phenyl)-4-(3-methoxybenzyl)pyrrolidine-2-carboxamide] was at most 300 nM; that for `CC(C)CCC(=O)NC(COCc1ccccc1)C(=O)Nc1ccc(Oc2ccccc2)cc1` (stereo not shown) [Compound 287, 4-methyl-N-(2-oxo-1-{[(phenylmethyl)oxy]methyl}-2-{[4-(phenyloxy)phenyl]amino}ethyl)pentanamide] was above 1000 nM. With `O=C(COc1ccc(F)cc1)NC(COCc1ccccc1)C(=O)Nc1ccc(Oc2ccccc2)cc1` (stereo not shown) [Compound 368, N-(2-oxo-1-{[(phenylmethyl)oxy]methyl}-2-{[4-(phenyloxy)phenyl]amino}ethyl)-2-(4-fluorophenoxy)acetamide], the IC50 was above 1000 nM. Consider `COc1ccc(OC)c(CCC(=O)NC(COCc2ccccc2)C(=O)Nc2ccc(Oc3ccccc3)cc2)c1` (stereo not shown) [Compound 382, N-(2-oxo-1-{[(phenylmethyl)oxy]methyl}-2-{[4-(phenyloxy)phenyl]amino}ethyl)-3-(2,5-dimethoxyphenyl)propanamide], for which the IC50 is above 1000 nM. As for `COc1ccc(F)cc1C(=O)NC(COCc1ccccc1)C(=O)Nc1ccc(Oc2ccccc2)cc1` (stereo not shown) [Compound 308, 5-fluoro-2-(methyloxy)-N-(2-oxo-1-{[(phenylmethyl)oxy]methyl}-2-{[4-(phenyloxy)phenyl]amino}ethyl)benzamide], the IC50 was above 1000 nM. Turning to `O=C(CN1CCN(c2ncccn2)CC1)N[C@@H](COCc1ccccc1)C(=O)Nc1ccc(Oc2ccc(F)cc2)cc1` [Compound 41, (S)-3-(benzyloxy)-N-(4-(4-fluorophenoxy)phenyl)-2-(2-(4-(pyrimidin-2-yl)piperazin-1-yl)acetamido)propanamide], the IC50 is above 1000 nM. For `O=C(CN1CCC(N2CCCC2)CC1)N[C@@H](COCc1ccccc1)C(=O)Nc1ccc(Oc2ccc(F)cc2)cc1` [Compound 43, (S)-3-(benzyloxy)-N-(4-(4-fluorophenoxy)phenyl)-2-(2-(4-(pyrrolidin-1-yl)piperidin-1-yl)acetamido)propanamide], the half-maximal inhibitory concentration (IC50) is above 1000 nM. In the case of `CC(=O)Nc1nc(C)c(S(=O)(=O)NC(COCc2ccccc2)C(=O)Nc2ccc(Oc3ccccc3)cc2)s1` (stereo not shown) [Compound 305, N-(2-oxo-1-{[(phenylmethyl)oxy]methyl}-2-{[4-(phenyloxy)phenyl]amino}ethyl)-2-acetylamino-4-methylthiazol-5-ylsulfonamide], the concentration for half-maximal inhibition (IC50) was at most 300 nM. `O=C(Nc1ccc(Oc2ccc(F)cc2)cc1)[C@@H]1C[C@@H](Cc2ccc(Cl)cc2)CN1C(=O)Cn1ccnn1` [Compound 228, (2S,4R)-1-(2-(1H-1,2,3-triazol-1-yl)acetyl)-4-(4-chlorobenzyl)-N-(4-(4-fluorophenoxy)phenyl)pyrrolidine-2-carboxamide]: the IC50 is at most 300 nM. In the case of `C[C@@H]1CN(CC(=O)N[C@@H](COCc2ccccc2)C(=O)Nc2ccc(Oc3ccc(F)cc3)cc2)C[C@H](C)O1` [Compound 234, (S)-3-(benzyloxy)-2-(2-((2R,6S)-2,6-dimethylmorpholino)acetamido)-N-(4-(4-fluorophenoxy)phenyl)propanamide] it was 300 to 1000 nM; in that of `O=C(Nc1ccc(Oc2ccc(F)cc2)cc1)[C@@H]1C[C@@H](Cc2cccc(F)c2)CN1C(=O)Cn1cncn1` [Compound 51, (2S,4R)-1-(2-(1H-1,2,4-triazol-1-yl)acetyl)-4-(3-fluorobenzyl)-N-(4-(4-fluorophenoxy)phenyl)pyrrolidine-2-carboxamide], at most 300 nM.

On to `O=C(Nc1ccc(Oc2ccc(F)cc2)cc1)[C@@H]1C[C@@H](Cc2ccccc2)CN1C(=O)Cc1ccccc1` [Compound 31, (2S,4R)-4-benzyl-N-(4-(4-fluorophenoxy)phenyl)-1-(2-phenylacetyl)pyrrolidine-2-carboxamide], for which the IC50 is at most 300 nM.

As for `O=C(NC(COCc1ccccc1)C(=O)Nc1ccc(Oc2ccccc2)cc1)C1CC1` (stereo not shown) [Compound 277, N-(2-oxo-1-{[(phenylmethyl)oxy]methyl}-2-{[4-(phenyloxy)phenyl]amino}ethyl)cyclopropylamide], the IC50 was at most 300 nM. In the case of `O=C(NC(COCc1ccccc1)C(=O)Nc1ccc(Oc2ccccc2)cc1)C(=O)c1ccccc1` (stereo not shown) [Compound 324, N-(2-oxo-1-{[(phenylmethyl)oxy]methyl}-2-{[4-(phenyloxy)phenyl]amino}ethyl)-2-oxo-2-phenylacetamide] it was above 1000 nM. In the case of `COCCOCC(=O)NC(COCc1ccccc1)C(=O)Nc1ccc(Oc2ccccc2)cc1` (stereo not shown) [Compound 303, N-(2-oxo-1-{[(phenylmethyl)oxy]methyl}-2-{[4-(phenyloxy)phenyl]amino}ethyl)-2-methoxyethoxyacetamide], the half-maximal inhibitory concentration (IC50) lay in the range of 300 to 1000 nM. Turning to `COc1ccc(Oc2ccc(NC(=O)[C@H](COCc3ccccc3)NC(=O)Cc3c[nH]cn3)cc2)cc1` [Compound 202, (S)-2-(2-(1H-imidazol-4-yl)acetamido)-3-(benzyloxy)-N-(4-(4-methoxyphenoxy)phenyl)propanamide], the IC50 is at most 300 nM. For `CC(=O)c1ccc(OCC(=O)NC(COCc2ccccc2)C(=O)Nc2ccc(Oc3ccccc3)cc2)cc1` (stereo not shown) [Compound 319, N-(2-oxo-1-{[(phenylmethyl)oxy]methyl}-2-{[4-(phenyloxy)phenyl]amino}ethyl)-4-acetylphenoxyacetamide], the IC50 was above 1000 nM. In the case of `Cc1cc(F)ccc1C[C@@H]1C[C@@H](C(=O)Nc2ccc(Oc3ccc(F)cc3)cc2)N(C(=O)Cn2nccn2)C1` [Compound 7, (2S,4R)-1-(2-(2H-1,2,3-triazol-2-yl)acetyl)-4-(4-fluoro-2-methylbenzyl)-N-(4-(4-fluorophenoxy)phenyl)pyrrolidine-2-carboxamide], the IC50 was at most 300 nM. In the case of `O=C(CCCCCN1C(=O)C=CC1=O)NC(COCc1ccccc1)C(=O)Nc1ccc(Oc2ccccc2)cc1` (stereo not shown) [Compound 15, N-(3-(benzyloxy)-1-oxo-1-(4-phenoxyphenylamino)propan-2-yl)-6-(2,5-dioxo-2,5-dihydro-1H-pyrrol-1-yl)hexanamide], the IC50 is above 1000 nM.
